# Values of other authors, collected in patent publication US10980860B2, “Diagnosis, prevention and treatment of diseases of the joint” (Ascendis Pharma A/S, priority 2012, dated 2021).
# Tested on: osteoarthritis
# Conditions: injection into the joint; Chevalier et al, J. Rheumatol 32 (2005); cited from earlier work
substance,measurement,value
"IL-1ra: IL-1ra (Anakinra, Kineret®, Swedish Orphan Biovitrum AB)",Reduction of symptoms of osteoarthritis,not significantly reducing the symptoms of osteoarthritis
